We go through 62 compounds from patent publication US7429660B2, “ATM inhibitors” (Kudos Pharmaceuticals Limited, priority 2003, dated 2008).

For this test, the target named is T1, ATM protein immunoprecipitated from HeLa cell nuclear extract (Homo sapiens, UniProt Q13315).
T1 construct: ATM protein was immunoprecipitated from HeLa cell nuclear extract; endogenous in cells; host or cells: HeLa cell nuclear extract (immunoprecipitated with rabbit polyclonal anti-ATM antiserum)
In words: In vitro ATM inhibition assay (phosphorylation of GSTp53N66 on serine 15, chemiluminescent detection). Also: tested normally from 100 µM down to 0.1 nM. It counts as biochemical. The settings on record: read-out: IC50 values (the concentration at which 50% of the enzyme activity is inhibited), ATM inhibition. In short, it runs like this: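 Immunoprecipitated HeLa nuclear ATM (C-terminal anti-sera) with GSTp53N66 substrate in Hepes pH 7.4 buffer with MgCl2/MnCl2; inhibitor preincubated 10 min at 37 °C, then Na-ATP added, 1 h at 37 °C.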

T1 sequence (Q13315 whole entry): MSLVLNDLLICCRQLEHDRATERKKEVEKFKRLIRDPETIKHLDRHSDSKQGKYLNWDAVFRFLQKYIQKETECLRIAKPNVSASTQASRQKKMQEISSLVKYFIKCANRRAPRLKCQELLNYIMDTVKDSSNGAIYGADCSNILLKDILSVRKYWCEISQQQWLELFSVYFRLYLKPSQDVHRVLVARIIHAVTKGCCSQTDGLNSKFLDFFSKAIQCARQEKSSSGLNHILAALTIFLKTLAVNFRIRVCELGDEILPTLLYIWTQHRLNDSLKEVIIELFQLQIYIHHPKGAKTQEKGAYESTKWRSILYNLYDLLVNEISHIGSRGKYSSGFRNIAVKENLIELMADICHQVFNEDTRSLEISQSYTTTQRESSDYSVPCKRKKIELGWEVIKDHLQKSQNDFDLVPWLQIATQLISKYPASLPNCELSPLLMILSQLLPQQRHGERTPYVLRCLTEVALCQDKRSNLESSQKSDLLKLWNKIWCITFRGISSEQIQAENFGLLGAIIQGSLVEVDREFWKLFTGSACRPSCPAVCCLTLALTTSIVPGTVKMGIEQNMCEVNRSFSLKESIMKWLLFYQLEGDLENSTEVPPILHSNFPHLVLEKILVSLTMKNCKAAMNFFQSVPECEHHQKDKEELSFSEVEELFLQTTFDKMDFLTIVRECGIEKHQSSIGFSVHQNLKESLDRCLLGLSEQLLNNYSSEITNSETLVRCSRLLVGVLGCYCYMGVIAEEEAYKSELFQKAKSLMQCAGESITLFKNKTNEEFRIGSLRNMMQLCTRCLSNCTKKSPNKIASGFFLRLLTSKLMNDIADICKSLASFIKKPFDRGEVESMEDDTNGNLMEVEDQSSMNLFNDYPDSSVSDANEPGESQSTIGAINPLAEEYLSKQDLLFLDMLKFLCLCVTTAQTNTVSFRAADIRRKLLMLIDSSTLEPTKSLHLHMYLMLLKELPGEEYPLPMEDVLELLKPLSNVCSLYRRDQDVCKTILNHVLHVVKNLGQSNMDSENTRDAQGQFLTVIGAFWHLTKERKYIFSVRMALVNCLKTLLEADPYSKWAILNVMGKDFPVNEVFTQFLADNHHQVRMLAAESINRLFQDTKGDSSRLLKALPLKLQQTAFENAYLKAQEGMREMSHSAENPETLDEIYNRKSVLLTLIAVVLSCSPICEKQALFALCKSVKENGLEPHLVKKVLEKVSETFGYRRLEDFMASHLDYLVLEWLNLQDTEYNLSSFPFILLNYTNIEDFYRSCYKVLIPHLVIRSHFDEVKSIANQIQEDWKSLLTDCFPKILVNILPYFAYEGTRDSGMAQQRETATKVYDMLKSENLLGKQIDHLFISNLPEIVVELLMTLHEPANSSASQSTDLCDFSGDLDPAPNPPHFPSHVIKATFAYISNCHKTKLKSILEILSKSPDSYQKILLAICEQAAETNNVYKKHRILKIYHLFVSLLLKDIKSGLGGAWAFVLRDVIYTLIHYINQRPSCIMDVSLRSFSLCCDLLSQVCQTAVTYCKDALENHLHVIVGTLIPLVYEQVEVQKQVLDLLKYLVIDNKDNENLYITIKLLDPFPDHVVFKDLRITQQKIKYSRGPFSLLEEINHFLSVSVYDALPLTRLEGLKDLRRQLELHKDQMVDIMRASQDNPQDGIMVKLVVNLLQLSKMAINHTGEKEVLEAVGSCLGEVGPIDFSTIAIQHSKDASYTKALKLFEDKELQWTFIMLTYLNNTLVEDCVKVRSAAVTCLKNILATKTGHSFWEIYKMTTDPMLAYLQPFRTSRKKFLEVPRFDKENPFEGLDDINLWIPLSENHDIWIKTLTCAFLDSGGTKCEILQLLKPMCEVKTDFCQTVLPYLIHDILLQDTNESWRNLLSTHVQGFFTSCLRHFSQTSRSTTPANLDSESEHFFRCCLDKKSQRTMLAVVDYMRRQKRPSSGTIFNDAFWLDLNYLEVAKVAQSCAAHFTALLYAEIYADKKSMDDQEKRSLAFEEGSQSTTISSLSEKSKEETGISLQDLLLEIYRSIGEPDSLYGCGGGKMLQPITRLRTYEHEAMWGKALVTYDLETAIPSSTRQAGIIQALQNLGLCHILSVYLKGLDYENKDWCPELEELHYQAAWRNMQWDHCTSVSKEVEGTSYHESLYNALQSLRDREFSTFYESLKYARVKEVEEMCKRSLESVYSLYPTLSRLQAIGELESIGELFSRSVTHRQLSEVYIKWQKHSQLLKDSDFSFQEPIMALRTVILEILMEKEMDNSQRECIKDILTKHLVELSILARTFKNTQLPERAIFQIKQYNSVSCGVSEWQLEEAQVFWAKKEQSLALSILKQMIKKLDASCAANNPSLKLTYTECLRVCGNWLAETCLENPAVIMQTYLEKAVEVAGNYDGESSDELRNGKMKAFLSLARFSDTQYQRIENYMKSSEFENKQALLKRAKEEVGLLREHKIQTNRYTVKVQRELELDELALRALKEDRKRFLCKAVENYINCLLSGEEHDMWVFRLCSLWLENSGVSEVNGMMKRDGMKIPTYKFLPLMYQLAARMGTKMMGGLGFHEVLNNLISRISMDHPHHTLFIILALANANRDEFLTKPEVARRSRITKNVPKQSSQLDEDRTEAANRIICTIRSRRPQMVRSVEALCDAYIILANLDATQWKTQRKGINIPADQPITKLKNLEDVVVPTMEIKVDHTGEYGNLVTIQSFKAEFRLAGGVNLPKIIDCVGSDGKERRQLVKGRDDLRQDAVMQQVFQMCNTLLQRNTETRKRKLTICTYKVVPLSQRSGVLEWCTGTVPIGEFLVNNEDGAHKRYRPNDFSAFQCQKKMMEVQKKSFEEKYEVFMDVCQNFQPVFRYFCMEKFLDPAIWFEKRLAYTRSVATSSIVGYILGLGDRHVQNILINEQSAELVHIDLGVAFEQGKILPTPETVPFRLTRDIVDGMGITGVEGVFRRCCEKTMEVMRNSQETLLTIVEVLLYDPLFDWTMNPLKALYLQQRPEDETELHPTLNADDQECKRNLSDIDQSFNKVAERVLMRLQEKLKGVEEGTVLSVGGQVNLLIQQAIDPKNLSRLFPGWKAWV

For the compound `CCOCCCNCCCN1c2ccccc2Sc2c(-c3cc(=O)cc(N4CCOCC4)o3)cccc21` [Compound 286], the IC50 was below 200 nM.

Regarding `O=C1NCCN1CCNCCCN1c2ccccc2Sc2c(-c3cc(=O)cc(N4CCOCC4)o3)cccc21` [Compound 287], the IC50 was below 200 nM.

As for `CN1CCN(CCCN2c3ccccc3Sc3c(-c4cc(=O)cc(N5CCOCC5)o4)cccc32)CC1` [Compound 288], the IC50 is below 200 nM.

As for `Cc1ccccc1N1CCN(CCCN2c3ccccc3Sc3c(-c4cc(=O)cc(N5CCOCC5)o4)cccc32)CC1` [Compound 289], the IC50 was below 200 nM.

As for `O=c1cc(-c2cccc3c2Sc2ccccc2N3CCCN2CCN(c3ccccn3)CC2)oc(N2CCOCC2)c1` [Compound 290], the IC50 was below 200 nM.

Consider `O=c1cc(-c2cccc3c2Sc2ccccc2N3CCCN2CCN(c3ccncc3)CC2)oc(N2CCOCC2)c1` [Compound 291], for which the IC50 is below 200 nM.

As to `O=c1cc(-c2cccc3c2Sc2ccccc2N3CCCN2CCN(CCOCCO)CC2)oc(N2CCOCC2)c1` [Compound 292], the IC50 was below 200 nM.

Consider `Cc1ccc(N2CCN(CCCN3c4ccccc4Sc4c(-c5cc(=O)cc(N6CCOCC6)o5)cccc43)CC2)c(C)c1` [Compound 294], for which the IC50 is below 200 nM.

For the compound `O=c1cc(-c2cccc3c2Sc2ccccc2N3CCCN2CCN(c3ncccn3)CC2)oc(N2CCOCC2)c1` [Compound 295], the IC50 is below 200 nM.

Regarding `CC(C)NC(=O)CN1CCN(CCCN2c3ccccc3Sc3c(-c4cc(=O)cc(N5CCOCC5)o4)cccc32)CC1` [Compound 296], the IC50 was below 200 nM.

Consider `O=c1cc(-c2cccc3c2Sc2ccccc2N3CCCN2CCN(c3ccccc3F)CC2)oc(N2CCOCC2)c1` [Compound 297], for which the IC50 was below 200 nM.

`CC(C)(C)OC(=O)N1CCN(CCCN2c3ccccc3Sc3c(-c4cc(=O)cc(N5CCOCC5)o4)cccc32)CC1` [Compound 298]: the IC50 is below 200 nM.

`CCOC(=O)CN1CCN(CCCN2c3ccccc3Sc3c(-c4cc(=O)cc(N5CCOCC5)o4)cccc32)CC1=O` [Compound 299]: the IC50 is below 200 nM.

Consider `O=c1cc(-c2cccc3c2Sc2ccccc2N3CCCN2CCN(CCO)CC2)oc(N2CCOCC2)c1` [Compound 300], for which the IC50 is below 200 nM.

In the case of `O=c1cc(-c2cccc3c2Sc2ccccc2N3CCCN2CCNCC2)oc(N2CCOCC2)c1` [Compound 303], the IC50 was below 200 nM.

Consider `CN(C)CCN1CCN(CCCN2c3ccccc3Sc3c(-c4cc(=O)cc(N5CCOCC5)o4)cccc32)CC1` [Compound 304], for which the IC50 is below 200 nM.

Take `O=c1cc(-c2cccc3c2Sc2ccccc2N3CCCNC2CCC(O)CC2)oc(N2CCOCC2)c1` (centres unmarked) [Compound 306]: the IC50 is below 200 nM.

With `CN1CCC(NCCCN2c3ccccc3Sc3c(-c4cc(=O)cc(N5CCOCC5)o4)cccc32)CC1` [Compound 307], the IC50 was below 200 nM.

Take `CC(C)(C)OC(=O)N1CCC(NCCCN2c3ccccc3Sc3c(-c4cc(=O)cc(N5CCOCC5)o4)cccc32)CC1` [Compound 311]: the IC50 is below 200 nM.

Consider `CCOC(=O)C1CCN(CCCN2c3ccccc3Sc3c(-c4cc(=O)cc(N5CCOCC5)o4)cccc32)CC1` [Compound 312], for which the IC50 was below 200 nM.

On to `CCOC(=O)C1CCCN(CCCN2c3ccccc3Sc3c(-c4cc(=O)cc(N5CCOCC5)o4)cccc32)C1` (centres unmarked) [Compound 315], for which the IC50 is below 200 nM.

Regarding `CC1(C)OCC(CNCCCN2c3ccccc3Sc3c(-c4cc(=O)cc(N5CCOCC5)o4)cccc32)O1` (centres unmarked) [Compound 321], the IC50 is below 200 nM.

`O=c1cc(-c2cccc3c2Sc2ccccc2N3CCCNC(CO)(CO)CO)oc(N2CCOCC2)c1` [Compound 322]: the IC50 is below 200 nM.

`O=c1cc(-c2cccc3c2Sc2ccccc2N3CCCNCC2CCCCCC2O)oc(N2CCOCC2)c1` (centres unmarked) [Compound 326]: the IC50 is below 200 nM.

With `O=c1cc(-c2cccc3c2Sc2ccccc2N3CCCN(CCO)CCO)oc(N2CCOCC2)c1` [Compound 327], the IC50 was below 200 nM.

Turning to `O=c1cc(-c2cccc3c2Sc2ccccc2N3CCCNCC2CCCCC2O)oc(N2CCOCC2)c1` (centres unmarked) [Compound 328], the IC50 is below 200 nM.

Take `O=c1cc(-c2cccc3c2Sc2ccccc2N3CCCNc2nc(-c3ccccc3)ns2)oc(N2CCOCC2)c1` [Compound 330]: the IC50 was below 200 nM.

For the compound `CN1CCCN(CCCN2c3ccccc3Sc3c(-c4cc(=O)cc(N5CCOCC5)o4)cccc32)CC1` [Compound 331], the IC50 was below 200 nM.

On to `CC(C)(C)OC(=O)N1CCCN(CCCN2c3ccccc3Sc3c(-c4cc(=O)cc(N5CCOCC5)o4)cccc32)CC1` [Compound 333], for which the IC50 was below 200 nM.

For the compound `O=C(CCCCC1SC[C@@H]2NC(=O)N[C@H]12)NCCCCCC(=O)NCCNCCCN1c2ccccc2Sc2c(-c3cc(=O)cc(N4CCOCC4)o3)cccc21` (some centres unmarked) [Compound 336], the IC50 is below 200 nM.

Turning to `CC(=O)N1CCN(CC(=O)Nc2ccc3c(c2)Cc2cccc(-c4cc(=O)cc(N5CCOCC5)o4)c2S3)CC1` [Compound 338], the IC50 is below 200 nM.

For the compound `COCCN1CCN(CC(=O)Nc2ccc3c(c2)Cc2cccc(-c4cc(=O)cc(N5CCOCC5)o4)c2S3)CC1` [Compound 339], the IC50 is below 200 nM.

`O=C(CN1CCN(CCOCCO)CC1)Nc1ccc2c(c1)Cc1cccc(-c3cc(=O)cc(N4CCOCC4)o3)c1S2` [Compound 340]: the IC50 is below 200 nM.

In the case of `CC(C)N1CCN(CC(=O)Nc2ccc3c(c2)Cc2cccc(-c4cc(=O)cc(N5CCOCC5)o4)c2S3)CC1` [Compound 341], the IC50 was below 200 nM.

Take `CCN1CCN(CC(=O)Nc2ccc3c(c2)Cc2cccc(-c4cc(=O)cc(N5CCOCC5)o4)c2S3)CC1` [Compound 342]: the IC50 is below 200 nM.

Take `O=C(CN1CCN(c2ccccn2)CC1)Nc1ccc2c(c1)Cc1cccc(-c3cc(=O)cc(N4CCOCC4)o3)c1S2` [Compound 343]: the IC50 is below 200 nM.

For the compound `O=C(CN1CCN(c2ccc(F)cc2)CC1)Nc1ccc2c(c1)Cc1cccc(-c3cc(=O)cc(N4CCOCC4)o3)c1S2` [Compound 344], the IC50 was below 200 nM.

Take `O=C(CN1CCN(c2ncccn2)CC1)Nc1ccc2c(c1)Cc1cccc(-c3cc(=O)cc(N4CCOCC4)o3)c1S2` [Compound 345]: the IC50 was below 200 nM.

Take `CC(C)NC(=O)CN1CCN(CC(=O)Nc2ccc3c(c2)Cc2cccc(-c4cc(=O)cc(N5CCOCC5)o4)c2S3)CC1` [Compound 346]: the IC50 was below 200 nM.

Consider `CN(C)CCN1CCN(CC(=O)Nc2ccc3c(c2)Cc2cccc(-c4cc(=O)cc(N5CCOCC5)o4)c2S3)CC1` [Compound 347], for which the IC50 is below 200 nM.

`O=C(CN1CCN(CCO)CC1)Nc1ccc2c(c1)Cc1cccc(-c3cc(=O)cc(N4CCOCC4)o3)c1S2` [Compound 348]: the IC50 is below 200 nM.

Regarding `CC(=O)N1CCN(CCC(=O)Nc2ccc3c(c2)Cc2cccc(-c4cc(=O)cc(N5CCOCC5)o4)c2S3)CC1` [Compound 349], the IC50 was below 200 nM.

As to `CC(C)N1CCN(CCC(=O)Nc2ccc3c(c2)Cc2cccc(-c4cc(=O)cc(N5CCOCC5)o4)c2S3)CC1` [Compound 351], the IC50 is below 200 nM.

Take `CCN1CCN(CCC(=O)Nc2ccc3c(c2)Cc2cccc(-c4cc(=O)cc(N5CCOCC5)o4)c2S3)CC1` [Compound 352]: the IC50 was below 200 nM.

Consider `O=C(CCN1CCN(c2ccccn2)CC1)Nc1ccc2c(c1)Cc1cccc(-c3cc(=O)cc(N4CCOCC4)o3)c1S2` [Compound 353], for which the IC50 was below 200 nM.

`O=C(CCN1CCN(c2ccc(F)cc2)CC1)Nc1ccc2c(c1)Cc1cccc(-c3cc(=O)cc(N4CCOCC4)o3)c1S2` [Compound 354]: the IC50 is below 200 nM.

As to `O=C(CCN1CCN(c2ncccn2)CC1)Nc1ccc2c(c1)Cc1cccc(-c3cc(=O)cc(N4CCOCC4)o3)c1S2` [Compound 355], the IC50 was below 200 nM.

In the case of `CN(C)CCN1CCN(CCC(=O)Nc2ccc3c(c2)Cc2cccc(-c4cc(=O)cc(N5CCOCC5)o4)c2S3)CC1` [Compound 356], the IC50 is below 200 nM.

With `C[C@@H]1CN(CCOc2ccc3c(c2)Sc2cccc(-c4cc(=O)cc(N5CCOCC5)o4)c2S3)C[C@H](C)O1` [Compound 359], the IC50 was below 200 nM.

In the case of `CN1CCN(CCOc2ccc3c(c2)Sc2cccc(-c4cc(=O)cc(N5CCOCC5)o4)c2S3)CC1` [Compound 361], the IC50 was below 200 nM.

As to `O=c1cc(-c2cccc3c2Sc2ccc(OCCNCc4ccncc4)cc2S3)oc(N2CCOCC2)c1` [Compound 366], the IC50 is below 200 nM.

Take `O=c1cc(-c2cccc3c2Sc2ccc(OCCNCCO)cc2S3)oc(N2CCOCC2)c1` [Compound 367]: the IC50 is below 200 nM.

For the compound `CC(=O)N1CCN(CCOc2ccc3c(c2)Sc2cccc(-c4cc(=O)cc(N5CCOCC5)o4)c2S3)CC1` [Compound 378], the IC50 was below 200 nM.

For the compound `O=c1cc(-c2cccc3c2Sc2ccc(OCCNCC(F)(F)F)cc2S3)oc(N2CCOCC2)c1` [Compound 379], the IC50 was below 200 nM.

Turning to `O=c1cc(-c2cccc3c2Sc2ccc(OCCNCCc4ccccn4)cc2S3)oc(N2CCOCC2)c1` [Compound 381], the IC50 is below 200 nM.

Turning to `CCCCNCCOc1ccc2c(c1)Sc1cccc(-c3cc(=O)cc(N4CCOCC4)o3)c1S2` [Compound 382], the IC50 was below 200 nM.

In the case of `CCCNCCOc1ccc2c(c1)Sc1cccc(-c3cc(=O)cc(N4CCOCC4)o3)c1S2` [Compound 383], the IC50 is below 200 nM.

With `O=C(c1ccco1)N1CCN(CCOc2ccc3c(c2)Sc2cccc(-c4cc(=O)cc(N5CCOCC5)o4)c2S3)CC1` [Compound 395], the IC50 was below 200 nM.

As for `CN(CCOc1ccc2c(c1)Sc1cccc(-c3cc(=O)cc(N4CCOCC4)o3)c1S2)CCc1ccccn1` [Compound 398], the IC50 is below 200 nM.

For the compound `O=c1cc(-c2cccc3c2Sc2ccc(OCCN4CCN(c5ccccn5)CC4)cc2S3)oc(N2CCOCC2)c1` [Compound 399], the IC50 is below 200 nM.

Consider `O=c1cc(-c2cccc3c2Sc2ccc(OCCN4CCOCC4)cc2S3)oc(N2CCOCC2)c1` [Compound 403], for which the IC50 was below 200 nM.

On to `O=C(COc1ccc2c(c1)Sc1cccc(-c3cc(=O)cc(N4CCOCC4)o3)c1S2)NC1CCC1` [Compound 405], for which the IC50 is below 200 nM.
